According to patent US20050049299A1, “Selective inhibitors of stat-3 activation and uses thereof” (priority 2003, published 2005):

What was measured:
Assay type in all cases: cell-based, human
STAT5 phosphorylation = test: Constitutive STAT5 phosphorylation in U266 cells (Western blot); conditions: 50 μM, conditions of complete STAT3 phosphorylation inhibition
Description: U266 cells (2×10^6) were treated with the indicated concentrations of curcumin for 1 h, or treated with 50 μM curcumin for the indicated durations and levels of phosphorylated-STAT3 (upper panel) and STAT3 (lower panel) were examined in whole cell extracts by Western Blotting. […] U266 cells (2×10^6) were treated with 50 μM curcumin for indicated durations, and examined for phosphorylated and nonphosphorylated-STAT3, and STAT5. […] U266 cells (2×10^6) were preincubated with curcumin (50 μM) for indicated durations before treatment with IFN-α (10 ng/ml) for additional 30 min and then examined for phosphorylated and nonphosphorylated-STAT1.
For detection of STAT proteins, whole-cell extracts were prepared by lysing the curcumin-treated cells in lysis buffer (20 mM Tris, pH 7.4, 250 mM NaCl, 2 mM EDTA, pH 8.0, 0.1% Triton-X100, 0.01 mg/ml aprotinin, 0.005 mg/ml leupeptin, 0.4 mM PMSF, and 4 mM NaVO4). Lysates were then spun at 14000 rpm for 10 min to remove insoluble material, and resolved on a 7.5% gel. After electrophoresis, the proteins were electrotransferred to a nitrocellulose membrane, blocked with 5% nonfat milk, and probed with anti-STAT antibodies (1:1000) overnight at 4° C. The blot was washed, exposed to HRP-conjugated secondary antibodies for 1 h, and finally examined by chemiluminescence (ECL, Amersham Pharmacia Biotech. Arlington Heights, Ill.). […]

U266 cells = test: IL-6-induced proliferation of U266 cells (thymidine incorporation, MTT); conditions: curcumin 10 μM, 48 h, serum-free; thymidine incorporation and MTT
Description: FIGS. 7A-B show& that IL-6 induces proliferation of human multiple myeloma cells and curcumin inhibits it. […] Cell proliferation assays were performed as described below. Results are shown as mean (±s.d.) of percent [^3H] thymidine incorporation or percent proliferation by MTT of triplicate cultures compared to the untreated control.
The antiproliferative effects of curcumin against different multiple myeloma cell lines were determined by the MTT dye uptake method as described earlier (28). Briefly, the cells (5000/well) were incubated in triplicate in a 96-well plate in the presence or absence of indicated test samples in a final volume of 0.1 ml for 24 h at 37° C. […] The OD at 570 nm was measured using a 96-well multiscanner autoreader (Dynatech MR 5000), with the extraction buffer serving as blank. Percent cell viability cell viability was calculated using the following formula: Percent cell viability=(OD of the experiment samples/OD of the control)×100.
The antiproliferative effects of curcumin were also monitored by the thymidine incorporation method. […] Six hours before the completion of experiment, cells were pulse treated with 0.5 μCi [^3H]thymidine, and the uptake of [^3H]thymidine was monitored using a Matrix-9600 β-counter (Packard Instruments, Downers Grove, Ill.). […]
Whether curcumin suppresses the proliferative effects of IL-6 was determined.

MM.1S and MM.1R cells = test: Cell growth of dexamethasone-sensitive and dexamethasone-resistant MM cells (MTT); conditions: curcumin 10 μM, 3 days
Description: MM.1S and MM.1R cells were cultured with dexamethasone (1 μM) in the absence or presence of curcumin (10 μM) for 3 days and cell viability was checked by the MTT method. Results are shown as mean (±s.d. indicated by error bar) of percent cell growth of triplicate cultures compared to the untreated control.
The antiproliferative effects of curcumin against different multiple myeloma cell lines were determined by the MTT dye uptake method as described earlier (28). Briefly, the cells (5000/well) were incubated in triplicate in a 96-well plate in the presence or absence of indicated test samples in a final volume of 0.1 ml for 24 h at 37° C. Thereafter, 0.025 ml of MTT solution (5 mg/ml in PBS) was added to each well. After a 2-h incubation at 37° C., 0.1 ml of the extraction buffer (20% SDS, 50% dimethylformamide) was added and the extract incubated overnight at 37° C. for solubilization of formazan crystals. The OD at 570 nm was measured using a 96-well multiscanner autoreader (Dynatech MR 5000), with the extraction buffer serving as blank. Percent cell viability cell viability was calculated using the following formula: Percent cell viability=(OD of the experiment samples/OD of the control)×100.
Multiple myeloma treated with dex gradually develops resistance to this drug.

multiple myeloma cells = test: Proliferation of multiple myeloma cells, curcumin vs AG490 (data not shown); conditions: 100 μM, 24 hours (data not shown)
STAT3 phosphorylation = test: Phosphorylated STAT3 in HNSCC cells (immunocytochemistry, horseradish peroxidase stain); conditions: 50 μM, 2 hrs
Description: MDA 1986LN, MDA 686LN and JMAR cells were incubated with either media alone or with curcumin (50 μM) for 2 hrs and then analyzed by immunocytochemistry using Alexa fluorochrome for the distribution of STAT3 (original magnification ×200). […] The same procedure as mentioned above was performed on the same cells and the p-STAT3 analyzed by immunocytochemistry using horse radish peroxidase stain (original magnification ×200).
To further confirm that curcumin inhibited STAT3 phosphorylation, the same curcumin-treated and untreated cells were analyzed for phosphorylated STAT3 by immunocytochemistry using horseradish peroxidase stain. […] These findings confirmed that curcumin inhibited STAT3 phosphorylation.

Compound: COc1cc(/C=C/C(=O)CC(=O)/C=C/c2ccc(O)c(OC)c2)ccc1O [curcumin, diferuloylmethane]
- levels of constitutively phosphorylated STAT5 (STAT5 phosphorylation): neither altered the levels of constitutively phosphorylated STAT5
- IL-6-induced proliferation of U266 cells (U266 cells): completely inhibited
- proliferation of dex-resistant and dex-sensitive multiple myeloma cells (MM.1S and MM.1R cells): inhibited the proliferation of dex-resistant and dex-sensitive multiple myeloma cells similarly
- proliferation of multiple myeloma cells (multiple myeloma cells): completely suppressed
- phosphorylation of STAT3 (immunocytochemistry) (STAT3 phosphorylation; JMAR cells): no inhibition of STAT3 phosphorylation was observed
- phosphorylation of STAT3 (immunocytochemistry) (STAT3 phosphorylation; MDA 1986LN and MDA 686LN cells): inhibited the phosphorylation of STAT3
